The target of experiment [1] is T1, Human opioid (ORL1) (Homo sapiens, UniProt P41146).
T1 construct: purchased Perkin Elmer Biosignal
The experiment in a line: Radioligand binding, human opioid ORL1 membranes, FlashPlate, [125I]-Nociceptin. The conditions noted are these: compound at 10 μM; for A10 radioligand binding inhibition: human ORL1 membranes. In outline:
(§1)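 Cloned human receptor membranes were coated onto FlashPlate wells and incubated with radioligand and compound (added from a 0.5 mM DMSO daughter plate) for 1 hour at room temperature in the dark. Scintillation counting gave percent inhibition, with DMSO defining total and reference ligand defining non-specific binding.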

For experiment [2], the target named is T2, Human Melanocortin (MC3) (Homo sapiens, UniProt P41968).
T2 construct: purchased Perkin Elmer Biosignal
The experiment in a line: Radioligand binding, human melanocortin MC3 membranes, FlashPlate, [125I]-NDP-αMSH. The conditions noted are these: compound at 10 μM; for A3 radioligand binding inhibition: human melanocortin MC3 membranes. In outline:
as §1

The target of experiment [3] is T3, Human κ-Opioid (KOP) (Homo sapiens, UniProt P41145).
T3 construct: purchased Perkin Elmer Biosignal
The experiment is described as follows: Radioligand binding, human κ-opioid (KOP) membranes, filtration, [3H]-Diprenorphine. The following applies: compound at 10 μM; for A2 radioligand binding inhibition: human κ-opioid (KOP) membranes. The essentials:
(§2)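 Percent inhibition of radioligand binding measured on recombinant human membranes: NK1 with [125I]-Substance P, KOP with [3H]-Diprenorphine. Incubation 1 h at room temperature, then harvest onto 0.3% PEI-soaked filters, cold Tris-HCl pH 7.4 washes and scintillation counting; non-specific binding from reference ligand wells.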

For experiment [4], the target named is T4, Human melanin-concentrating hormone (MCH1) (Homo sapiens, UniProt Q99705).
T4 construct: purchased Perkin Elmer Biosignal
The experiment in a line: Radioligand binding, human melanin-concentrating hormone MCH1 membranes, FlashPlate, [125I]-S36057. The following applies: compound at 10 μM; for A6 radioligand binding inhibition: human MCH1 membranes. In outline:
as §1

Experiment [5] has as its target T5, Human μ-opioid (MOP) (Homo sapiens, UniProt P35372).
T5 construct: purchased Perkin Elmer Biosignal
The experiment is described as follows: Radioligand binding, human μ-opioid (MOP) membranes, FlashPlate, [3H]-Naloxone. The conditions noted are these: compound at 10 μM; for A7 radioligand binding inhibition: human μ-opioid (MOP) membranes. The essentials: as §1

Experiment [6] concerns the target T6, Mouse urotensin (mUR2) (Mus musculus, UniProt Q8VIH9).
T6 construct: purchased Perkin Elmer Biosignal
T6 sequence (Q8VIH9 1-385): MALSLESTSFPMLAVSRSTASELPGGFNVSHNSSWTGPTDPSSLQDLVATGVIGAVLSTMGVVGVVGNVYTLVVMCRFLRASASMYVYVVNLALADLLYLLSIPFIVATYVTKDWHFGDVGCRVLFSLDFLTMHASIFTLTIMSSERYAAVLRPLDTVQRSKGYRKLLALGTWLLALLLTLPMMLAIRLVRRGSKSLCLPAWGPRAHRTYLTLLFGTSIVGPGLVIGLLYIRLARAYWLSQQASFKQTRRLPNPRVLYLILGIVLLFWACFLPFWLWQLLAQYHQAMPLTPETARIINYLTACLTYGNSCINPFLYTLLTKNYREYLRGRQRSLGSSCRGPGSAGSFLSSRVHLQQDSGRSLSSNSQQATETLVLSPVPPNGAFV
The experiment is described as follows: Radioligand binding, mouse urotensin mUR2 membranes, FlashPlate, [125I]-Urotensin II. The conditions noted are these: compound at 10 μM; for A11 radioligand binding inhibition: mouse urotensin mUR2 membranes. The essentials:
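Cloned mouse urotensin (mUR2) receptor membranes from Perkin Elmer Biosignal were immobilized in FlashPlate microplates using a proprietary coating. Each well got 19.5 μl buffer, then 0.5 μl of DMSO, reference ligand, or compound. Adding 5 μl of [125I]-Urotensin II, diluted to 5× final concentration in binding buffer, started binding. Plates were sealed with TopSeal-A and incubated 1 hour at room temperature in the dark. Wells were counted for 30 seconds each on a TopCount after a 60-second delay, and percentage inhibition was calculated.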

For experiment [7], the target named is T7, Human neurokinin (NK1) (Homo sapiens, UniProt P25103).
T7 construct: purchased Perkin Elmer Biosignal
The experiment in a line: Radioligand binding, human neurokinin NK1 membranes, filtration, [125I]-Substance P. The following applies: compound at 10 μM; for A8 radioligand binding inhibition: human neurokinin NK1 membranes. The essentials:
as §2

Experiment [8] addresses T8, Human δ-opioid (DOP) (Homo sapiens, UniProt P41143).
T8 construct: purchased Perkin Elmer Biosignal
The experiment in a line: Radioligand binding, human δ-opioid (DOP) membranes, FlashPlate, [3H]-Bremazocine. The conditions noted are these: compound at 10 μM; for A1 radioligand binding inhibition: human δ-opioid (DOP) membranes. In outline: as §1

Experiment [9] concerns the target T9, Human Melanocortin (MC4) (Homo sapiens, UniProt P32245).
T9 construct: purchased Perkin Elmer Biosignal
The experiment in a line: Radioligand binding, human melanocortin MC4 membranes, FlashPlate, [125I]-NDP-αMSH. The following applies: compound at 10 μM; for A4 radioligand binding inhibition: human melanocortin MC4 membranes. In outline:
as §1

Experiment [10] deals with T10, Human neuropeptide Y (NPY-Y1) (Homo sapiens, UniProt P25929).
T10 construct: purchased Perkin Elmer Biosignal
T10 sequence (P25929 1-384): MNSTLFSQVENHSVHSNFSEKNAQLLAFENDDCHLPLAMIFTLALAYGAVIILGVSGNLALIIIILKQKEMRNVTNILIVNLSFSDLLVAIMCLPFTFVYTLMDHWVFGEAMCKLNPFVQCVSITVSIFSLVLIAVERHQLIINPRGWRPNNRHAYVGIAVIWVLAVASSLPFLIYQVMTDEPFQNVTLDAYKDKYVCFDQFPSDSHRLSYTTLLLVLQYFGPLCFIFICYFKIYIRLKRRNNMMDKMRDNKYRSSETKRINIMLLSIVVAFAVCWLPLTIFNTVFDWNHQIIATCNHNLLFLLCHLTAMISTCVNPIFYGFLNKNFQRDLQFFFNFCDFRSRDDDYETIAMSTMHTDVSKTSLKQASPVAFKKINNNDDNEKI
The experiment in a line: Radioligand binding, human neuropeptide Y NPY-Y1 membranes, FlashPlate, [125I]-PYY. The conditions noted are these: compound at 10 μM; for A9 radioligand binding inhibition: human NPY-Y1 membranes. In outline: as §1

Experiment [11] concerns the target T11, Human melanocortin (MC5) (Homo sapiens, UniProt P33032).
T11 construct: purchased Perkin Elmer Biosignal
The experiment is described as follows: Radioligand binding, human melanocortin MC5 membranes, FlashPlate, [125I]-NDP-αMSH. The conditions noted are these: compound at 10 μM; for A5 radioligand binding inhibition: human melanocortin MC5 membranes. The essentials:
as §1

This note sets out measurements from patent US20080009418A1, “Selective Inhibitors” (Alchemia LTD., priority 2004, published 2008).

T2 sequence (P41968 whole entry): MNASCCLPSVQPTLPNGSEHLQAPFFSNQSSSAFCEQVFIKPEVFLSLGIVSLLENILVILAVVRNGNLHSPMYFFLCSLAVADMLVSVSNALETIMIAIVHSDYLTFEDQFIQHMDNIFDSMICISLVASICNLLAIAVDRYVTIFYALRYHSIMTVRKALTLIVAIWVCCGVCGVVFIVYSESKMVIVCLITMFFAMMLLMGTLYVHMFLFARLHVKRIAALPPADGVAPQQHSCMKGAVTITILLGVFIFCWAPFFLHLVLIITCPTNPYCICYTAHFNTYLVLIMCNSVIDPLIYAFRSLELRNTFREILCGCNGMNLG
T5 sequence (P35372 whole entry): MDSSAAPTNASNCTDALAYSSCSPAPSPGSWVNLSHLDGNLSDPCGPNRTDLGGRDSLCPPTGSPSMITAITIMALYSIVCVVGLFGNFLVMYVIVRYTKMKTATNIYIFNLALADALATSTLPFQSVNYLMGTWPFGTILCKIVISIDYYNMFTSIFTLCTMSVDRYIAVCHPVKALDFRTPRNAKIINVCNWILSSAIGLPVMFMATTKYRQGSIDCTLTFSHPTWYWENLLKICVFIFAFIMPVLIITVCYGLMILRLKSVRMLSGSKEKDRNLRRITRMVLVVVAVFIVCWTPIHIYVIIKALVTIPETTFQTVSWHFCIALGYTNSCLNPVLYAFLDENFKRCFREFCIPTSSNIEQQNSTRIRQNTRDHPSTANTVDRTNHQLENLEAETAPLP
T9 sequence (P32245 whole entry): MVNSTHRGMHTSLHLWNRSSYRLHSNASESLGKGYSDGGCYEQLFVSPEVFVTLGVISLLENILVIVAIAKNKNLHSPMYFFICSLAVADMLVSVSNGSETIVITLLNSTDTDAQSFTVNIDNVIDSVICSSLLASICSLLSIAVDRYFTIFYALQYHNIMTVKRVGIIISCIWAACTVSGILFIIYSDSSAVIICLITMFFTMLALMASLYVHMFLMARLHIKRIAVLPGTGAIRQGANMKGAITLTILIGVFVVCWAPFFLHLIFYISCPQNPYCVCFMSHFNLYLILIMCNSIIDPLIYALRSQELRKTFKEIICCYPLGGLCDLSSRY
T7 sequence (P25103 whole entry): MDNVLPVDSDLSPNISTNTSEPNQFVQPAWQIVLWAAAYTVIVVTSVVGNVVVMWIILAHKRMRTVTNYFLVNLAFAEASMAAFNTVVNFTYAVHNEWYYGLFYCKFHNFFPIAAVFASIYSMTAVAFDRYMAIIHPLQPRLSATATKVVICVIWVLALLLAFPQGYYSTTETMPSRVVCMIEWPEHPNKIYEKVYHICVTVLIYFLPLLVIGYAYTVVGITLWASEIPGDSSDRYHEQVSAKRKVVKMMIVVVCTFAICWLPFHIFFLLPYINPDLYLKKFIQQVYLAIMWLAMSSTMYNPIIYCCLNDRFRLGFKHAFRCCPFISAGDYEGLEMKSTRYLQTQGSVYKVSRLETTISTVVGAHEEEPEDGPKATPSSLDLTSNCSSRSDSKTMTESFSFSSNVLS
T3 sequence (P41145 whole entry): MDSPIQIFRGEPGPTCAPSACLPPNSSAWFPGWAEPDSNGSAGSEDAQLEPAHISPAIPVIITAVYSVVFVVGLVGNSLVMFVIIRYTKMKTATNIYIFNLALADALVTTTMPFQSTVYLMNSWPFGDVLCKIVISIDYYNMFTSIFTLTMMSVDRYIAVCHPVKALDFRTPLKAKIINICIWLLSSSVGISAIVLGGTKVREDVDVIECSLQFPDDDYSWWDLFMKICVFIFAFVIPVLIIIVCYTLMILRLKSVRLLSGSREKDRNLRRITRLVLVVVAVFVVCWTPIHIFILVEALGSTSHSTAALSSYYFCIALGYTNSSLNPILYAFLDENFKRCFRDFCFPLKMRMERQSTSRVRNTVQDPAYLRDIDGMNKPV
T8 sequence (P41143 whole entry): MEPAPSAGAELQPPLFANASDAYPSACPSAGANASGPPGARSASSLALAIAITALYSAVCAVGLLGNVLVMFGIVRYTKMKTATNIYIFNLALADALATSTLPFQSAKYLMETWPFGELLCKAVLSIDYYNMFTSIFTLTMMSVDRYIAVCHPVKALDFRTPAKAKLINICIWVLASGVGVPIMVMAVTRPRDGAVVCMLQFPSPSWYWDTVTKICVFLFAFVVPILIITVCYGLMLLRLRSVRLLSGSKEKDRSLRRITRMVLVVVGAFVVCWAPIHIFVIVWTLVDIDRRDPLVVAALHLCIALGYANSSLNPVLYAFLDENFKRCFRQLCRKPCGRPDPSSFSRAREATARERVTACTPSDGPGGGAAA
T4 sequence (Q99705 whole entry): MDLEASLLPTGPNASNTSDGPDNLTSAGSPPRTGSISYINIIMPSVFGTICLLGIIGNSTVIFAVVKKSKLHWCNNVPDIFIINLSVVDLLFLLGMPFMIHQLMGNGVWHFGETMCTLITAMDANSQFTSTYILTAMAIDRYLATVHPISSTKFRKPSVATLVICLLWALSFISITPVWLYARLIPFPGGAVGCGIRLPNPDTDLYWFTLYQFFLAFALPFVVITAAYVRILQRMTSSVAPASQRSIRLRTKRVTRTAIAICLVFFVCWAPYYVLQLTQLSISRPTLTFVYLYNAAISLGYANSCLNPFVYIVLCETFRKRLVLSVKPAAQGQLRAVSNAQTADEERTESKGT
T11 sequence (P33032 whole entry): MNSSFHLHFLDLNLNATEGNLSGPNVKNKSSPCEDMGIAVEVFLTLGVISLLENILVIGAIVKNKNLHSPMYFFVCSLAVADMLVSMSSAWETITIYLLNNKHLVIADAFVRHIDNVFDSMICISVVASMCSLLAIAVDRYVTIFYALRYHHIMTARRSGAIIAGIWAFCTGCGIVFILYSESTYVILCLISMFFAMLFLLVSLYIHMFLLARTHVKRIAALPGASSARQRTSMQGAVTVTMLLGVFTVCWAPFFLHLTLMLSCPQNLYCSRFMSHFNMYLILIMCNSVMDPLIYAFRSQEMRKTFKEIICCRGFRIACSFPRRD
T1 sequence (P41146 whole entry): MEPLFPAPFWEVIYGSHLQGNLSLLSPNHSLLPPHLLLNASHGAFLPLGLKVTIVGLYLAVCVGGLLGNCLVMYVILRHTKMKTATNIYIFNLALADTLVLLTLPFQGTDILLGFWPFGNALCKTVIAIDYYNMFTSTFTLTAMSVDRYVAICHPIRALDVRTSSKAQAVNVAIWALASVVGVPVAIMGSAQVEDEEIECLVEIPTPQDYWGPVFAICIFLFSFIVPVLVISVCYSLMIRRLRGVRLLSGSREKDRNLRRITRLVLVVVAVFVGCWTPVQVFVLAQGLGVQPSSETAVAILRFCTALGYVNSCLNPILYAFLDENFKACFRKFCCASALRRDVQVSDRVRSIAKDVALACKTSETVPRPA

In the case of `CO[C@H]1[C@H](O)[C@@H](COCc2ccc(Cl)cc2)OC(OCc2ccccc2)[C@@H]1NC(=O)CNC(=N)N` (some centres unmarked) [compound 90], in experiment [1], the “A10 radioligand binding inhibition” value was “− (“−” indicates less than 50% inhibition at 10 μM)”. In experiment [2], the “A3 radioligand binding inhibition” value is “− (“−” indicates less than 50% inhibition at 10 μM)”. In addition, in [3], the “A2 radioligand binding inhibition” value is “− (“−” indicates less than 50% inhibition at 10 μM)”. Moreover, in [4], the “A6 radioligand binding inhibition” value is on record as “− (“−” indicates less than 50% inhibition at 10 μM)”. Also, in [5], the “A7 radioligand binding inhibition” value is “− (“−” indicates less than 50% inhibition at 10 μM)”. Further, the “A11 radioligand binding inhibition” value in experiment [6] is recorded as “− (“−” indicates less than 50% inhibition at 10 μM)”. For the same compound, the “A8 radioligand binding inhibition” value in experiment [7] is “+ (“+” indicates greater than 50% inhibition at 10 μM)”. The “A1 radioligand binding inhibition” value in [8] was “− (“−” indicates less than 50% inhibition at 10 μM)”. Moreover, the “A4 radioligand binding inhibition” value in experiment [9] is on record as “− (“−” indicates less than 50% inhibition at 10 μM)”. The “A9 radioligand binding inhibition” value in experiment [10] is “− (“−” indicates less than 50% inhibition at 10 μM)”. Besides, the “A5 radioligand binding inhibition” value in [11] is “− (“−” indicates less than 50% inhibition at 10 μM)”.
Turning to `N=C(N)NCC(=O)N[C@H]1C(OCc2ccc(Cl)cc2)O[C@H](COCc2ccccc2)[C@@H](O)[C@@H]1OCc1ccc(-c2ccccc2)cc1` (some centres unmarked) [compound 519], the “A10: inhibition of radioligand binding, human opioid (ORL1)” value in experiment [1] ([125I]-Nociceptin) is on record as “− (“−” indicates less than 50% inhibition at 10 μM)”. The “A3: inhibition of radioligand binding, human melanocortin (MC3)” value in [2] ([125I]-NDP-αMSH, 10 µM) is “+ (“+” indicates greater than 50% inhibition at 10 μM)”. Also, in experiment [3] ([3H]-Diprenorphine), the “A2: inhibition of radioligand binding, human κ-opioid (KOP)” value is on record as “− (“−” indicates less than 50% inhibition at 10 μM)”. Moreover, in experiment [4] ([125I]-S36057, 10 µM), the “A6: inhibition of radioligand binding, human melanin-concentrating hormone (MCH1)” value is recorded as “+ (“+” indicates greater than 50% inhibition at 10 μM)”. The “A7: inhibition of radioligand binding, human μ-opioid (MOP)” value in experiment [5] ([3H]-Naloxone) was “− (“−” indicates less than 50% inhibition at 10 μM)”. Moreover, the “A11: inhibition of radioligand binding, mouse urotensin (mUR2)” value in [6] ([125I]-Urotensin II) is reported as “− (“−” indicates less than 50% inhibition at 10 μM)”. Moreover, in [7] ([125I]-Substance P), the “A8: inhibition of radioligand binding, human neurokinin (NK1)” value is “+ (“+” indicates greater than 50% inhibition at 10 μM)”. For the same compound, in experiment [8] ([3H]-Bremazocine), the “A1: inhibition of radioligand binding, human δ-opioid (DOP)” value is “− (“−” indicates less than 50% inhibition at 10 μM)”. The “A4: inhibition of radioligand binding, human melanocortin (MC4)” value in experiment [9] ([125I]-NDP-αMSH, 10 µM) was “+ (“+” indicates greater than 50% inhibition at 10 μM)”. Besides, the “A9: inhibition of radioligand binding, human neuropeptide Y (NPY-Y1)” value in experiment [10] ([125I]-PYY) is “− (“−” indicates less than 50% inhibition at 10 μM)”. In experiment [11] ([125I]-NDP-αMSH, 10 µM), the “A5: inhibition of radioligand binding, human melanocortin (MC5)” value is listed as “+ (“+” indicates greater than 50% inhibition at 10 μM)”.
For `COCC1OC(OCc2ccccc2)C(NC(=O)CCCNC(=N)N)C(OCc2ccc3ccccc3c2)C1O` (centres unmarked) [compound 193], the “A10: inhibition of radioligand binding” value in experiment [1] ([125I]-Nociceptin, FlashPlate) was “− (“−” indicates less than 50% inhibition at 10 μM)”. For the same compound, the “A3: inhibition of radioligand binding” value in [2] ([125I]-NDP-αMSH, FlashPlate) is reported as “+ (“+” indicates greater than 50% inhibition at 10 μM)”. Moreover, in experiment [3] ([3H]-Diprenorphine, filtration), the “A2: inhibition of radioligand binding” value was “− (“−” indicates less than 50% inhibition at 10 μM)”. In experiment [4] ([125I]-S36057, FlashPlate), the “A6: inhibition of radioligand binding” value was “+ (“+” indicates greater than 50% inhibition at 10 μM)”. The “A7: inhibition of radioligand binding” value in [5] ([3H]-Naloxone, FlashPlate) is listed as “− (“−” indicates less than 50% inhibition at 10 μM)”. The “A11: inhibition of radioligand binding” value in [6] ([125I]-Urotensin II, FlashPlate) is “− (“−” indicates less than 50% inhibition at 10 μM)”. For the same compound, the “A8: inhibition of radioligand binding” value in [7] ([125I]-Substance P, filtration) is “+ (“+” indicates greater than 50% inhibition at 10 μM)”. For the same compound, the “A1: inhibition of radioligand binding” value in [8] ([3H]-Bremazocine, FlashPlate) is reported as “− (“−” indicates less than 50% inhibition at 10 μM)”. Moreover, the “A4: inhibition of radioligand binding” value in [9] ([125I]-NDP-αMSH, FlashPlate) was “+ (“+” indicates greater than 50% inhibition at 10 μM)”. In addition, the “A9: inhibition of radioligand binding” value in experiment [10] ([125I]-PYY, FlashPlate) is “− (“−” indicates less than 50% inhibition at 10 μM)”. Further, the “A5: inhibition of radioligand binding” value in experiment [11] ([125I]-NDP-αMSH, FlashPlate) is on record as “+ (“+” indicates greater than 50% inhibition at 10 μM)”.
As to `CO[C@H]1[C@H](O)[C@@H](COCc2ccccc2)OC(OCc2ccc(-c3ccccc3)cc2)[C@@H]1NC(=O)CCCNC(=N)N` (some centres unmarked) [compound 61], the “A10 radioligand binding inhibition” value in [1] is “− (“−” indicates less than 50% inhibition at 10 μM)”. The “A3 radioligand binding inhibition” value in [2] was “− (“−” indicates less than 50% inhibition at 10 μM)”. In experiment [3], the “A2 radioligand binding inhibition” value is on record as “+ (“+” indicates greater than 50% inhibition at 10 μM)”. Moreover, in [4], the “A6 radioligand binding inhibition” value was “− (“−” indicates less than 50% inhibition at 10 μM)”. For the same compound, the “A7 radioligand binding inhibition” value in [5] was “+ (“+” indicates greater than 50% inhibition at 10 μM)”. In experiment [6], the “A11 radioligand binding inhibition” value is recorded as “− (“−” indicates less than 50% inhibition at 10 μM)”. For the same compound, in [7], the “A8 radioligand binding inhibition” value is recorded as “+ (“+” indicates greater than 50% inhibition at 10 μM)”. Besides, the “A1 radioligand binding inhibition” value in [8] is on record as “− (“−” indicates less than 50% inhibition at 10 μM)”. The “A4 radioligand binding inhibition” value in [9] was “− (“−” indicates less than 50% inhibition at 10 μM)”. For the same compound, the “A9 radioligand binding inhibition” value in experiment [10] is given as “− (“−” indicates less than 50% inhibition at 10 μM)”. Also, the “A5 radioligand binding inhibition” value in experiment [11] was “+ (“+” indicates greater than 50% inhibition at 10 μM)”.
